From patent publication US20120022040A1, “ANTIMICROBIALS” (priority 2008, published 2012)
≈ marks a conversion by molar mass, not a printed value.

Key:
MRSA 43300 [1] = assay: MIC90 determination by serial dilution; format: cell-based, methicillin-resistant Staphylococcus aureus; settings: Staphylococcus aureus, dilution series from the Max Conc.
Procedure: (§1) Compounds (1), (2), and (3) were tested to determine MIC90 values.
(§2) Rules for determining MIC values: Each extract has a starting concentration which is diluted 7 times for a total of 8 dilutions. The MIC is the lowest dilution without growth. Each serial dilution is repeated three times for three identical dilutions. For reporting the results, the following rules were used. Inconsistent values were thrown out. For instance, the MIC value reported for an extract with MIC readings of 4, 4, and 2 would be four (the 2 is thrown out). If the readings are all different and in series like 2, 4, and 8, the median MIC value of 4 would be reported. If the three values are all different and not in series, an error is reported. Besides the three identical dilutions at the same starting concentration, each extract has dilutions starting at three different concentrations: 64, 4, and 0.25 μg/mL. Each extract therefore has 3 identical dilution series at 3 different starting concentrations—a total of 24 dilutions. The dilutions overlap which can result in a disagreement in MIC values for two different starting dilutions. Since a small amount of error is introduced with each dilution, the MIC readings with the fewest dilutions are selected as the correct MIC values.
(§3) Abbreviations: MRSA=methicillin-resistant Staphylococcus aureus; SA=Staphylococcus aureus; PA=Pseudomonas aeruginosa; Kleb=Klebsiella pneumonia; EC=Escherichia coli; VSE=Vancomycin-sensitive enterococci faecium.

EC 25922 [2] = assay: MIC90 determination by serial dilution; format: cell-based; settings: Escherichia coli, dilution series from the Max Conc.
Procedure: as §1, §2, §3

PA 27853 [3] = assay: MIC90 determination by serial dilution; format: cell-based; settings: Pseudomonas aeruginosa, dilution series from the Max Conc.
Procedure: as §1, §2, §3

SA 29213 [4] = assay: MIC90 determination by serial dilution; format: cell-based; settings: Staphylococcus aureus, dilution series from the Max Conc.
Procedure: as §1, §2, §3

Kleb 4352 [5] = assay: MIC90 determination by serial dilution; format: cell-based, Klebsiella pneumonia; settings: Klebsiella pneumoniae, dilution series from the Max Conc.
Procedure: as §1, §2, §3

VSE 49452 [6] = assay: MIC90 determination by serial dilution; format: cell-based, Vancomycin-sensitive enterococci faecium; settings: dilution series from the Max Conc.
Procedure: as §1, §2, §3

VSE 6569 [7] = assay: MIC90 determination by serial dilution; format: cell-based, Vancomycin-sensitive enterococci faecium; settings: dilution series from the Max Conc.
Procedure: as §1, §2, §3

MRSA 43300 [8] = assay: IC50 determination (XlFit dose response model 200); format: cell-based, methicillin-resistant Staphylococcus aureus; settings: Staphylococcus aureus, average of 3 replicates
Procedure: (§4) Compounds (1), (2), and (3) were tested to determine IC50 values. IC50 was determined using XlFit add-in using dose response model 200. The average of 3 replicates is presented for each compound in Table 2.

EC 25922 [9] = assay: IC50 determination (XlFit dose response model 200); format: cell-based; settings: Escherichia coli, average of 3 replicates
Procedure: as §4

PA 27853 [10] = assay: IC50 determination (XlFit dose response model 200); format: cell-based; settings: Pseudomonas aeruginosa, average of 3 replicates
Procedure: as §4

SA 29213 [11] = assay: IC50 determination (XlFit dose response model 200); format: cell-based; settings: Staphylococcus aureus, average of 3 replicates
Procedure: as §4

Kleb 4352 [12] = assay: IC50 determination (XlFit dose response model 200); format: cell-based, Klebsiella pneumonia; settings: Klebsiella pneumoniae, average of 3 replicates
Procedure: as §4

VSE 49452 [13] = assay: IC50 determination (XlFit dose response model 200); format: cell-based, Vancomycin-sensitive enterococci faecium; settings: average of 3 replicates
Procedure: as §4

VSE 6569 [14] = assay: IC50 determination (XlFit dose response model 200); format: cell-based, Vancomycin-sensitive enterococci faecium; settings: average of 3 replicates
Procedure: as §4

Structure (SMILES) | MIC90 (MRSA 43300 [1]) [µg/mL] | MIC90 (EC 25922 [2]) [µg/mL] | MIC90 (PA 27853 [3]) [µg/mL] | MIC90 (SA 29213 [4]) [µg/mL] | MIC90 (Kleb 4352 [5]) [µg/mL] | MIC90 (VSE 49452 [6]) [µg/mL] | MIC90 (VSE 6569 [7]) [µg/mL] | IC50 (MRSA 43300 [8]) [µg/mL] | IC50 (EC 25922 [9]) [µg/mL] | IC50 (PA 27853 [10]) [µg/mL] | IC50 (SA 29213 [11]) [µg/mL] | IC50 (Kleb 4352 [12]) [µg/mL] | IC50 (VSE 49452 [13]) [µg/mL] | IC50 (VSE 6569 [14]) [µg/mL]
O=C1CN(/N=C/c2ccc([N+](=O)[O-])o2)C(=O)N1 [Nitrofurantoin] | 8 (≈ 33.6 µM) | 8 (≈ 33.6 µM) | > 32 | 16 (≈ 67.2 µM) | 16 (≈ 67.2 µM) | 8 (≈ 33.6 µM) | 32 (≈ 134 µM) | 1.83 (≈ 7.67 µM) | 3.27 (≈ 13.7 µM) | > 32 | 7.71 (≈ 32.4 µM) | 3.68 (≈ 15.4 µM) | 3.57 (≈ 15 µM) | 2.87 (≈ 12.1 µM)
C[C@@H](O)[C@H]1C(=O)N2C(C(=O)O)=C(S[C@@H]3CN[C@H](C(=O)N(C)C)C3)[C@H](C)[C@H]12 [Meropenem, meropenem, reference compound] | 4 (≈ 10.4 µM) | 0.06 (≈ 0.156 µM) | 1 (≈ 2.61 µM) | 0.25 (≈ 0.652 µM) | 0.12 (≈ 0.313 µM) | 16 (≈ 41.7 µM) | 32 (≈ 83.4 µM) | 0.037 (≈ 0.0965 µM) | 0.122 (≈ 0.318 µM) | 0.945 (≈ 2.46 µM) | 0.126 (≈ 0.329 µM) | 0.121 (≈ 0.316 µM) | 6.74 (≈ 17.6 µM) | 11.8 (≈ 30.8 µM)
C[C@H]1c2cccc(O)c2C(=O)C2=C(O)[C@]3(O)C(=O)C(C(N)=O)=C(O)[C@@H](N(C)C)[C@@H]3[C@@H](O)[C@@H]21 [Doxycycline] |  |  | 32 (≈ 72 µM) |  |  |  |  |  |  | 6.3 (≈ 14.2 µM) |  |  |  | 

Further lines, results first:

MIC90 (MRSA 43300 [1]) [µg/mL] | MIC90 (EC 25922 [2]) [µg/mL] | MIC90 (PA 27853 [3]) [µg/mL] | MIC90 (SA 29213 [4]) [µg/mL] | MIC90 (Kleb 4352 [5]) [µg/mL] | MIC90 (VSE 49452 [6]) [µg/mL] | MIC90 (VSE 6569 [7]) [µg/mL] | IC50 (MRSA 43300 [8]) [µg/mL] | IC50 (EC 25922 [9]) [µg/mL] | IC50 (PA 27853 [10]) [µg/mL] | IC50 (SA 29213 [11]) [µg/mL] | IC50 (Kleb 4352 [12]) [µg/mL] | IC50 (VSE 49452 [13]) [µg/mL] | IC50 (VSE 6569 [14]) [µg/mL] | Structure (SMILES)
8 (≈ 7.73 µM) | > 64 | > 64 | 2 (≈ 1.93 µM) | > 64 | 16 (≈ 15.5 µM) | 32 (≈ 30.9 µM) | 0.17 (≈ 0.164 µM) | > 64 | > 64 | 0.871 (≈ 0.842 µM) | > 64 | 1.6 (≈ 1.55 µM) | 7.23 (≈ 6.99 µM) | CCC(C)(C)C(=O)C(=O)N1CCCC[C@H]1C(=O)O[C@H](CCc1ccc(OC)c(OC)c1)c1cccc(OCC(=O)NCCCCCN2C[C@@H](SC3=C(C(=O)O)N4C(=O)[C@H]([C@@H](C)O)[C@H]4[C@H]3C)C[C@H]2C(=O)N(C)C)c1 [(2), (4R,5S,6S)-3-((3S,5S)-1-(5-(2-(3-((R)-3-(3,4-dimethoxyphenyl)-1-((S)-1-(3,3-dimethyl-2-oxopentanoyl)piperidine-2-carbonyloxy)propyl)phenoxy)acetamido)pentyl)-5-(dimethylcarbamoyl)pyrrolidin-3-ylthio)-6-((R)-1-hydroxyethyl)-4-methyl-7-oxo-1-azabicyclo[3.2.0]hept-2-ene-2-carboxylic acid]
4 (≈ 12.4 µM) | 8 (≈ 24.8 µM) | > 64 | 8 (≈ 24.8 µM) | ≤ 2 | 4 (≈ 12.4 µM) | ≤ 2 | < 2 | < 2 | > 64 | > 64 | > 64 | < 2 | < 2 | O=C(N[C@H](CO)[C@H](O)c1ccc([N+](=O)[O-])cc1)C(Cl)Cl [Chloramphenicol]
> 64 | 64 (≈ 87.2 µM) | > 64 | ≤ 2 | 8 (≈ 10.9 µM) | ≤ 2 | 8 (≈ 10.9 µM) | > 64 | 20.7 (≈ 28.2 µM) | > 64 | < 2 | 2.21 (≈ 3.01 µM) | < 2 | 2.75 (≈ 3.75 µM) | CC[C@H]1OC(=O)[C@H](C)[C@@H](O[C@H]2C[C@@](C)(OC)[C@@H](O)[C@H](C)O2)[C@H](C)[C@@H](O[C@@H]2O[C@H](C)C[C@H](N(C)C)[C@H]2O)[C@](C)(O)C[C@@H](C)C(=O)[C@H](C)[C@@H](O)[C@]1(C)O [Erythromycin]
 |  | 1 (≈ 1.71 µM) |  |  |  |  |  |  | 0.274 (≈ 0.468 µM) |  |  |  |  | NCC[C@H](O)C(=O)N[C@@H]1C[C@H](N)[C@@H](O[C@H]2O[C@H](CN)[C@@H](O)[C@H](O)[C@H]2O)[C@H](O)[C@H]1O[C@H]1O[C@H](CO)[C@@H](O)[C@H](N)[C@H]1O [Amikacin]
8 (≈ 7.8 µM) | > 64 | > 64 | 2 (≈ 1.95 µM) | > 64 | 16 (≈ 15.6 µM) | 64 (≈ 62.4 µM) | 0.265 (≈ 0.258 µM) | > 64 | > 64 | 0.942 (≈ 0.918 µM) | > 64 | 6.91 (≈ 6.73 µM) | 15.2 (≈ 14.8 µM) | CCC(C)(C)C(=O)C(=O)N1CCCC[C@H]1C(=O)O[C@H](CCc1ccc(OC)c(OC)c1)c1cccc(OCCNC(=O)c2cccc(NC(=O)[C@@H]3C[C@H](SC4=C(C(=O)O)N5C(=O)[C@H]([C@@H](C)O)[C@H]5[C@H]4C)CN3)c2)c1 [(1), (4R,5S,6S)-3-((3S,5S)-5-(3-(2-(3-((R)-3-(3,4-dimethoxyphenyl)-1-((S)-1-(3,3-dimethyl-2-oxopentanoyl)piperidine-2-carbonyloxy)propyl)phenoxy)ethylcarbamoyl)phenylcarbamoyl)pyrrolidin-3-ylthio)-6-((R)-1-hydroxyethyl)-4-methyl-7-oxo-1-azabicyclo[3.2.0]hept-2-ene-2-carboxylic acid]
